According to ChEMBL document CHEMBL1123773, “The role of solvent-accessible surface area in determining partition coefficients” (J Med Chem, 1987):

Assays:
[1] = Partition coefficient (logP); details: octanol/water
[2] = Partition coefficient (logP) (chloroform); details: octanol/water
[3] = Partition coefficient (logP) (ether); details: octanol/water
[4] = Partition coefficient (logP) (hexane); details: octanol/water
[5] = Diffusion constant for permeability of stratum corneum; assay type: ADME
[6] = Partition coefficient (logP) (benzene); details: octanol/water
[7] = Partition coefficient (logP) (carbon tetrachloride); details: octanol/water

Row | SMILES | logP [1] | logP [2] | logP [3] | logP [4] | Log k [5] | logP [6] | logP [7]
1 | COc1cccc(C=O)c1O | 1.37 | 2.3 | 1.35 | 0.53 |  |  | 
2 | CCC(N)CC | 0.57 | 0.81 | -0.07 | -0.48 |  |  | 
3 | O=C(O)c1cccc([N+](=O)[O-])c1 |  | 0.48 | 1.97 | -1.22 |  |  | 
4 | CCCCCCCO [1-HEPTANOL] | 2.41 | 2.41 | 2.4 | 1.01 |  |  | 
5 | CCCCCO [1-PENTANOL] |  | 1.05 | 1.2 | -0.4 |  |  | 
6 | Nc1ccccc1[N+](=O)[O-] [2-NITROANILINE] | 1.85 | 2.13 | 1.95 | 0.25 |  |  | 
7 | O=[N+]([O-])c1cccc(O)c1 [3-NITRO-PHENOL] |  | 0.6 | 2.18 | -1.4 |  |  | 
8 | Nc1cccc([N+](=O)[O-])c1 [3-NITROANILINE] |  | 1.61 | 1.71 | -0.62 |  |  | 
9 | O=Cc1ccc(O)cc1 [4-HYDROXYBENZALDEHYDE] |  | -0.12 | 1.1 | -0.95 |  |  | 
10 | COC(C)=O [ACETIC ACID METHYL ESTER] |  | 1.16 | 0.43 | -0.26 |  |  | 
11 | CC(C)=O [ACETONE] |  | 0.24 | -0.21 | -0.91 |  |  | 
12 | C[C@]12CCC(=O)C=C1CC[C@@H]1[C@@H]2[C@@H](O)C[C@]2(C=O)[C@@H](C(=O)CO)CC[C@@H]12 [ALDOSTERONE] |  |  |  |  | 0.48 |  | 
13 | Nc1ccccc1 [ANILINE] |  | 1.42 | 0.85 | -0.3 |  |  | 
14 | Nc1ccccc1C(=O)O [ANTHRANILIC ACID] | 1.21 | -1.15 | 1.43 | -2.12 |  |  | 
15 | Oc1ccc2ccccc2c1 [BETANAPHTHOL] |  | 1.74 | 1.77 | 0.3 |  | 1.74 | 0.99
16 | CCCCN [BUTYLAMINE] | 0.74 | 0.56 | 0.11 | -0.62 |  |  | 
17 | O=C(O)CCl [CHLOROACETIC ACID] | 0.22 | -1.92 | 0.37 | -3.14 |  |  | 
18 | C[C@]12C[C@H](O)[C@H]3[C@@H](CCC4=CC(=O)CC[C@@]43C)[C@@H]1CC[C@@H]2C(=O)CO [CORTICOSTERONE] |  |  |  |  | 1.78 |  | 
19 | C[C@]12CCC(=O)C=C1CC[C@@H]1[C@@H]2C(=O)C[C@@]2(C)[C@H]1CC[C@]2(O)C(=O)CO [CORTISONE] |  |  |  |  | 1 |  | 
20 | C[C@]12CCC(=O)C=C1CC[C@@H]1[C@@H]2CC[C@@]2(C)[C@H]1CC[C@]2(O)C(=O)CO [CORTODOXONE] |  |  |  |  | 1.88 |  | 
21 | C[C@]12CC[C@H]3[C@@H](CCC4=CC(=O)CC[C@@]43C)[C@@H]1CC[C@@H]2C(=O)CO [DESOXYCORTICOSTERONE] |  |  |  |  | 2.65 |  | 
22 | CCOC(C)=O [ETHYL ACETATE] |  | 1.8 | 0.93 | 0.29 |  |  | 
23 | CCN [ETHYLAMINE] | -0.3 | -0.35 | -1.18 | -1.77 |  |  | 
24 | COc1ccccc1O [GUAIACOL] | 1.32 | 1.7 | 1.44 | 0.36 |  |  | 

Row | SMILES | logP [1] | logP [2] | logP [3] | logP [4] | Log k [5] | logP [6] | logP [7]
25 | CCCCCC(=O)O [HEXANOATE] |  | 1.15 | 1.95 | -0.46 |  |  | 
26 | Oc1ccc(O)cc1 [HYDROQUINONE] |  | 0.23 | 0.38 | 0.05 |  | 0.15 | 0.04
27 | CC(=O)[C@@]1(O)CC[C@H]2[C@@H]3CC[C@@H]4C[C@H](O)CC[C@]4(C)[C@H]3CC[C@@]21C [HYDROXYPREGNENOLONE] |  |  |  |  | 2.78 |  | 
28 | CC(=O)[C@@]1(O)CC[C@H]2[C@@H]3CCC4=CC(=O)CC[C@]4(C)[C@H]3CC[C@@]21C [HYDROXYPROGESTERONE] |  |  |  |  | 2.78 |  | 
29 | CC(C)CO [ISOBUTANOL] | 0.65 | 0.34 | 0.53 | -0.6 |  |  | 
30 | COc1ccc(C=O)cc1O [ISOVANILLIN] | 0.97 | 1.18 | 0.82 | -0.85 |  |  | 
31 | COc1ccc(O)cc1 [MEQUINOL] |  | 0.23 | 1.47 | -0.76 |  |  | 
32 | CO [METHYL ALCOHOL] | -0.77 | -1.26 | -1.15 | -2.8 |  |  | 
33 | O=[N+]([O-])c1ccccc1O [NITROPHENOLATE] |  | 2.35 | 2.18 | 1.4 |  |  | 
34 | O=[N+]([O-])c1ccc(O)cc1 [P-NITROPHENOL] |  | 0.2 | 2.01 | -2 |  |  | 
35 | O=C(O)c1ccc(O)cc1 [PARABEN] |  | -0.5 | 1.42 | -1.82 |  |  | 
36 | CCCC(C)C1(CC)C(=O)NC(=O)NC1=O (centres undefined) [PENTOBARBITAL] | 2.1 | 1.38 | 1.28 | -1.3 |  |  | 
37 | CCC1(c2ccccc2)C(=O)NC(=O)NC1=O [PHENOBARBITAL] | 1.71 | 0.62 | 1.51 | -2.22 |  |  | 
38 | Oc1ccccc1 [PHENOL] |  | 0.37 | 1.64 | -0.7 |  | 0.36 | -0.36
39 | CC(=O)[C@H]1CC[C@H]2[C@@H]3CC=C4C[C@@H](O)CC[C@]4(C)[C@H]3CC[C@]12C [PREGNENOLONE] |  |  |  |  | 3.17 |  | 
40 | CC(=O)[C@H]1CC[C@H]2[C@@H]3CCC4=CC(=O)CC[C@]4(C)[C@H]3CC[C@]12C [PROGESTERONE] |  |  |  |  | 3.18 |  | 
41 | CCC(=O)O [PROPIONIC ACID] |  | -0.96 | 0.27 | -2.14 |  |  | 
42 | CCCN [PROPYLAMINE] | 0.28 | 0.26 | -0.54 |  |  |  | 
43 | O=C(O)c1ccccc1O [SALICYLIC ACID] |  | 0.58 | 2.37 | -0.57 |  | 0.5 | 0
44 | CC(C)(C)N [TERT-BUTYLAMINE] | 0.27 | 0.54 | -0.26 | -0.48 |  |  | 
45 | C[C@]12CC[C@H]3[C@@H](CCC4=CC(=O)CC[C@@]43C)[C@@H]1CC[C@@H]2O [TESTOSTERONE] |  |  |  |  | 2.6 |  | 
46 | O=C(O)C(Cl)(Cl)Cl [TRICHLOROACETIC ACID] | 1.33 | -0.69 | 1.21 | -2.63 |  |  | 
47 | CCCCC(=O)O [VALERIC ACID] | 1.39 | 0.28 | 1 | -1 |  |  | 
48 | COc1cc(C=O)ccc1O [VANILLIN] |  | 1.42 | 0.96 | -0.72 |  |  | 
